# Laboratory results from publication PMC11003488 (Journal of Enzyme Inhibition and Medicinal Chemistry, 2023).
# “And” between values parts separate entries of the source, which are not always exact repeats. Equal entries are not always repeated. Where two headings read alike, the source gives them in different places.
# Columns and labels:
# ACHN = assay: NCI-60 SRB growth inhibition, one-dose and five-dose; assay type: cell-based; details: Homo sapiens
# IGROV1 = assay: as above; assay type: cell-based; details: Homo sapiens
# PC-3 = assay: as above; assay type: cell-based; details: Homo sapiens
# SN12C = assay: as above; assay type: cell-based; details: Homo sapiens
# HS 578 T = assay: as above; assay type: cell-based; details: Homo sapiens
# Breast cancer cell lines = assay: NCI-60 SRB growth inhibition, subpanel; assay type: cell-based, human; details: for GI50: Homo sapiens
# TK-10 = assay: NCI-60 SRB growth inhibition, one-dose and five-dose; assay type: cell-based; details: Homo sapiens
# Melanoma cell lines = assay: NCI-60 SRB growth inhibition, subpanel; assay type: cell-based, human; details: for GI50: Homo sapiens
# CNS cancer cell lines = assay: NCI-60 SRB growth inhibition, subpanel; assay type: cell-based, human; details: for GI50: Homo sapiens
# HCC-2998 = assay: NCI-60 SRB growth inhibition, one-dose and five-dose; assay type: cell-based; details: Homo sapiens
# Leukaemia cell lines = assay: NCI-60 SRB growth inhibition, subpanel; assay type: cell-based, human; details: for GI50: Homo sapiens
# HOP-62 = assay: NCI-60 SRB growth inhibition, one-dose and five-dose; assay type: cell-based; details: Homo sapiens
# OVCAR-8 = assay: as above; assay type: cell-based; details: Homo sapiens
# SF-539 = assay: as above; assay type: cell-based; details: Homo sapiens
# HL-60(TB) = assay: cells; assay type: cell-based; details: Homo sapiens
# Colon cancer cell lines = assay: NCI-60 SRB growth inhibition, subpanel; assay type: cell-based, human; details: for GI50: Homo sapiens
# Human VEGFR-2 = Human VEGFR-2 (Homo sapiens, UniProt P35968); assay: VEGFR-2 inhibition assay; assay type: biochemical
# Chain of Human VEGFR-2 (P35968 20-1356): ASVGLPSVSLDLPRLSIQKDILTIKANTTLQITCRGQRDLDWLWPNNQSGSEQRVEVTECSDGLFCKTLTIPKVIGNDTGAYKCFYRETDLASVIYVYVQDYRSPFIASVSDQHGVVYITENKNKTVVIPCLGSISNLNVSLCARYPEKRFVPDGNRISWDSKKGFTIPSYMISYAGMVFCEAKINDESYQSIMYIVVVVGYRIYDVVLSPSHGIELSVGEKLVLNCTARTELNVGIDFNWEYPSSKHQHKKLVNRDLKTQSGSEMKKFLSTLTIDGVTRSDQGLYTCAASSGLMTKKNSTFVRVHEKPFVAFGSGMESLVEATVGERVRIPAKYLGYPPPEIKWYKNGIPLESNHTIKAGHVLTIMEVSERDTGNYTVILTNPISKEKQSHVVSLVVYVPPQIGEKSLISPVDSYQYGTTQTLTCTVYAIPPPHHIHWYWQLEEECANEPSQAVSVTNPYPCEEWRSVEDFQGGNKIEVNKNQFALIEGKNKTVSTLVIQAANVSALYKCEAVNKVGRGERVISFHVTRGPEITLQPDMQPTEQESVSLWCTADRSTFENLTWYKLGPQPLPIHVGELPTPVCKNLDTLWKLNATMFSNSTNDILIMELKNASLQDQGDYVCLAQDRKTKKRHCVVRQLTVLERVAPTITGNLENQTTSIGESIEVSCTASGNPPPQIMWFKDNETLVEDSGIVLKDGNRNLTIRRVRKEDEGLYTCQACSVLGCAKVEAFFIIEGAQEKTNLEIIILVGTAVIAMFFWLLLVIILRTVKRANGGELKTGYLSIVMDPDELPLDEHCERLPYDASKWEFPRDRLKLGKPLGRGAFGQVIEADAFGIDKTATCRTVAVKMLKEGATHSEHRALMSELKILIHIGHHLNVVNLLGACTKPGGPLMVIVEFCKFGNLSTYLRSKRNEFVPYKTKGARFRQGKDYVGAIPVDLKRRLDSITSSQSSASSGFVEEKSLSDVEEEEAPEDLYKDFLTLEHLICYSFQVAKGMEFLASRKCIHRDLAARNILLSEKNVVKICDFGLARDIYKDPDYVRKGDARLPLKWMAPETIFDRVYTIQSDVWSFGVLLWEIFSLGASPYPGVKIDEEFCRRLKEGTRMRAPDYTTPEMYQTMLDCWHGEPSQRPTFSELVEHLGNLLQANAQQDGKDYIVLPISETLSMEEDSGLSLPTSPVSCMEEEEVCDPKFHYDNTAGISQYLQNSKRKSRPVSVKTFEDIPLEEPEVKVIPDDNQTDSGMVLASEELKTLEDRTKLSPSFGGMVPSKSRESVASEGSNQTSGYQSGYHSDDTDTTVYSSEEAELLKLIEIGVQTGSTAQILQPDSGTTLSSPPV
# NSCLC cell lines = assay: NCI-60 SRB growth inhibition, subpanel; assay type: cell-based, human; details: for GI50: Homo sapiens
# NCI-H226 = assay: NCI-60 SRB growth inhibition, one-dose and five-dose; assay type: cell-based; details: Homo sapiens
# [1] = tested on: Ovarian cancer cell lines; assay: NCI-60 SRB growth inhibition, subpanel; assay type: cell-based, human; details: for GI50: Homo sapiens
# TNF-α = assay: Gene expression by RT-qPCR in HCT-116; details: HCT-116, 24 h, IC50 of compound; vs 0.1% DMSO; 2^-ΔΔct
# MDA-MB-231/ATCC = assay: NCI-60 SRB growth inhibition, one-dose and five-dose; assay type: cell-based; details: Homo sapiens
# UACC-62 = assay: as above; assay type: cell-based; details: Homo sapiens
# HCT-116 = assay: as above; assay type: cell-based; details: Homo sapiens
# Bax [2] = assay: Gene expression by RT-qPCR in HCT-116; details: HCT-116, 24 h
# HCT-116 (colon cancer) [3] = assay: Apoptosis AV/PI assay by flow cytometry; assay type: cell-based, human; details: HCT-116, 24 h, IC50 of compound
# Renal cancer cell lines = assay: NCI-60 SRB growth inhibition, subpanel; assay type: cell-based, human; details: for GI50: Homo sapiens
# Caspase-3 [4] = assay: Protein level by ELISA assay in HCT-116; assay type: cell-based, human; details: HCT-116, IC50 of compound, 24 h, vs 0.1% DMSO
# Caspase-3 [5] = assay: Gene expression by RT-qPCR in HCT-116; details: HCT-116, 24 h, IC50 of compound; vs 0.1% DMSO; 2^-ΔΔct
# KM12 = assay: NCI-60 SRB growth inhibition, one-dose and five-dose; assay type: cell-based; details: Homo sapiens
# HCT-116 (colon cancer) [6] = assay: Cell cycle analysis by PI flow cytometry; assay type: cell-based, human; details: HCT-116, 24 h, IC50 of compound
# [7] = tested on: Prostate cancer cell lines; assay: NCI-60 SRB growth inhibition, subpanel; assay type: cell-based, human; details: for GI50: Homo sapiens
# Bax [8] = assay: Protein level by ELISA assay in HCT-116; assay type: cell-based, human; details: HCT-116, IC50 of compound, 24 h, vs 0.1% DMSO
# UO-31 = assay: NCI-60 SRB growth inhibition, one-dose and five-dose; assay type: cell-based; details: Homo sapiens
# [9] = tested on: WI-38 normal human fibroblast cells; assay: Cytotoxicity towards normal fibroblasts, safety index; assay type: cell-based; details: WI-38 versus cancer cell lines
# [10] = as above; assay type: cell-based, human; details: human, WI-38 normal fibroblast cells
# RPMI-8226 = assay: NCI-60 SRB growth inhibition, one-dose and five-dose; assay type: cell-based; details: Homo sapiens
# MDA-MB-435 = assay: as above; assay type: cell-based; details: Homo sapiens
# [11] = read-out: percent growth inhibition
structure (smiles),measurement,setting,value
"COc1ccc(CNc2cccc(C(=O)/C=C/c3ccc(NC(C)=O)cc3)c2)cc1OC [Compound 5h, (E)-N-(4–(3-(3-((3,4-dimethoxybenzyl)amino)phenyl)-3-oxoprop-1-en-1-yl)phenyl) acetamide]",GI50,ACHN,2.07 µM
same,inhibition at 10 µM,ACHN; [11],162%
same,GI50,IGROV1; IGROV-1,4.54 µM
same,inhibition at 10 µM,"IGROV1; IGROV-1, read-out: percent growth inhibition",96.8%
same,GI50,PC-3; PC-3,2.81 µM
same,inhibition at 10 µM,"PC-3; PC-3, read-out: percent growth inhibition",85%
same,GI50,SN12C,2.48 µM
same,inhibition at 10 µM,SN12C; [11],135%
same,GI50,HS 578 T,3.07 µM
same,inhibition at 10 µM,HS 578 T; [11],99.1%
same,GI50,Breast cancer cell lines; read-out: GI50 MG-MID,2.91 µM
same,GI50,Breast cancer cell lines; read-out: MG-MID GI50,2.91 µM
same,SI (Selectivity Index),Breast cancer cell lines; full panel MG-MID / Breast Cancer subpanel MG-MID,1.54
same,GI50,TK-10; TK-10,4.09 µM
same,inhibition at 10 µM,"TK-10; TK-10, read-out: percent growth inhibition",60.7%
same,GI50,Melanoma cell lines; read-out: GI50 MG-MID,4.44 µM
same,GI50,Melanoma cell lines; read-out: MG-MID GI50,4.44 µM
same,SI (Selectivity Index),Melanoma cell lines; full panel MG-MID / Melanoma subpanel MG-MID,1.01
same,GI50,CNS cancer cell lines; read-out: GI50 MG-MID,5.22 µM
same,GI50,CNS cancer cell lines; read-out: MG-MID GI50,5.22 µM
same,SI (Selectivity Index),CNS cancer cell lines; full panel MG-MID / CNS Cancer subpanel MG-MID,0.86
same,GI50,HCC-2998; HCC 2998,3.3 µM
same,inhibition at 10 µM,"HCC-2998; HCC 2998, read-out: percent growth inhibition",176%
same,GI50,Leukaemia cell lines; read-out: GI50 MG-MID,2.36 µM
same,GI50,Leukaemia cell lines; read-out: MG-MID GI50,2.36 µM
same,SI (Selectivity Index),Leukaemia cell lines; full panel MG-MID / leukaemia subpanel MG-MID,1.90
same,GI50,HOP-62; HOP-62,7.25 µM
same,inhibition at 10 µM,"HOP-62; HOP-62, read-out: percent growth inhibition",62.3%
same,GI50,OVCAR-8; OVCAR-8,2.97 µM
same,inhibition at 10 µM,"OVCAR-8; OVCAR-8, read-out: percent growth inhibition",95.7%
same,GI50,SF-539; SF-539,2.31 µM
same,inhibition at 10 µM,"SF-539; SF-539, read-out: percent growth inhibition",174%
same,GI50,HL-60(TB); HL-60,2.54 µM
same,inhibition at 10 µM,"HL-60(TB); HL-60, read-out: percent growth inhibition",78.8%
same,GI50,Colon cancer cell lines; read-out: GI50 MG-MID,3.24 µM
same,GI50,Colon cancer cell lines; read-out: MG-MID GI50,3.24 µM
same,SI (Selectivity Index),Colon cancer cell lines; full panel MG-MID / Colon Cancer subpanel MG-MID,1.38
same,IC50,Human VEGFR-2,0.31 ± 0.015 µM
same,GI50,NSCLC cell lines; read-out: GI50 MG-MID,8.91 µM
same,GI50,NSCLC cell lines; read-out: MG-MID GI50,8.91 µM
same,SI (Selectivity Index),NSCLC cell lines; full panel MG-MID / NSCLC subpanel MG-MID,0.50
same,GI50,NCI-H226; NCI-H226,12.4 µM
same,inhibition at 10 µM,"NCI-H226; NCI-H226, read-out: percent growth inhibition",21.2%
same,GI50,[1]; read-out: GI50 MG-MID,5.75 µM
same,GI50,[1]; read-out: MG-MID GI50,5.75 µM
same,SI (Selectivity Index),[1]; full panel MG-MID / Ovarian Cancer subpanel MG-MID,0.78
same,TNF-α gene expression fold change,TNF-α,2.2 fold and 2.20 ± 0.17 fold
same,GI50,MDA-MB-231/ATCC; MDA-MB-231,2.84 µM
same,inhibition at 10 µM,"MDA-MB-231/ATCC; MDA-MB-231, read-out: percent growth inhibition",89.4%
same,GI50,UACC-62; UACC-62,3.9 µM
same,inhibition at 10 µM,"UACC-62; UACC-62, read-out: percent growth inhibition",130%
same,GI50,"HCT-116; HCT-116, HCT-116 (colon cancer), five-dose assay",1.95 µM
same,GI50,"HCT-116; HCT-116, HCT-116, five-dose screening",0.78 µM
same,inhibition at 10 µM,"HCT-116; HCT-116, read-out: percent growth inhibition",174%
same,Bax gene expression fold change,"Bax [2]; IC50 of compound, vs 0.1% DMSO, 2^-ΔΔct",30.06 ± 3.4 fold
same,Bax/Bcl-2 ratio,Bax [2]; ratio of gene expression fold changes,31.6
same,% Early apoptotic cells (LR),HCT-116 (colon cancer) [3],0.24 ± 0.01%
same,% Late apoptotic cells (UL),HCT-116 (colon cancer) [3],64.62 ± 10.1%
same,% Necrotic cells (UR),HCT-116 (colon cancer) [3],2.25 ± 0.71%
same,% Viable cells (LL),HCT-116 (colon cancer) [3],32.89 ± 3.8%
same,GI50,Renal cancer cell lines; read-out: GI50 MG-MID,3.99 µM
same,GI50,Renal cancer cell lines; read-out: MG-MID GI50,3.99 µM
same,SI (Selectivity Index),Renal cancer cell lines; full panel MG-MID / Renal Cancer subpanel MG-MID,1.12
same,caspase-3 protein level,Caspase-3 [4],43.12 fold
same,Caspase-3 gene expression fold change,Caspase-3 [5],0.002 fold
same,GI50,KM12; KM12,1.94 µM
same,inhibition at 10 µM,"KM12; KM12, read-out: percent growth inhibition",159%
same,% G0-G1,HCT-116 (colon cancer) [6],35.12 ± 3.5%
same,% G2M,HCT-116 (colon cancer) [6],3.21 ± 1.1%
same,% S,HCT-116 (colon cancer) [6],4.91 ± 1.1%
same,% SubG0-G1,HCT-116 (colon cancer) [6],56.87 ± 7.7%
same,GI50,[7]; read-out: GI50 MG-MID,3.53 µM
same,GI50,[7]; read-out: MG-MID GI50,3.53 µM
same,SI (Selectivity Index),[7]; full panel MG-MID / Prostatic Cancer subpanel MG-MID,1.27
same,Bax protein level,Bax [8],2.96 fold
same,GI50,UO-31; UO-31,3 µM
same,inhibition at 10 µM,"UO-31; UO-31, read-out: percent growth inhibition",160%
same,Safety index,[9],>1
same,GI50 at 48 h,[10],> 100 µM
same,GI50,RPMI-8226; RPMI-8226,1.79 µM
same,inhibition at 10 µM,"RPMI-8226; RPMI-8226, read-out: percent growth inhibition",112%
same,GI50,MDA-MB-435; MDA-MB-435,2.22 µM
same,inhibition at 10 µM,"MDA-MB-435; MDA-MB-435, read-out: percent growth inhibition",133%
